Results reported in US10214502B2, “Method of inhibiting apolipoprotein-E expression while increasing expression of at least one of LDL-receptor protein or AbcA1 protein comprising administering a small compound” (California State University, Fresno, priority 2016, dated 2019).

system: apoE3; assay: ELISA of apoE3 levels in conditioned media of compound-treated mouse cortical astrocyte cells; assay type: cell-based; settings: 10 μM compound, 24 hours, normalized to cell protein, relative to DMSO treated cells
Experimental: ApoE inhibition can be readily determined by any one of several assays and techniques known to those of ordinary skill in the art, including the enzyme-linked immunosorbant assay (ELISA). In the experimental results shown in Table 2 and FIG. 5, the ELISA assay was carried out on cortical astrocyte cells from mice. Astrocyte cells produce apoE, LDLR and AbcA1 proteins.
The experiments involved treating mouse cortical astrocyte cells with the claimed compounds at 10 μM concentration for an incubation time of 24 hrs. DMSO solvent was used as a negative control, because the compounds were dissolved in DMSO when applied to the cells.
The ELISA technique involves immobilizing an apoE-specific capture antibody to a 96-well plate, addition of sample (conditioned medium from mouse cortical astrocyte cells treated with the compound for 24 hours), and detection of the bound apoE using a second apoE-specific biotinylated antibody and streptavidin-HRP.
The Mabtech ELISA kit detects the presence of the three apoE isoforms: apoE2, apoE3, and apoE4.
To obtain the data shown in Table 2 and FIG. 5, the mouse cortical astrocyte cells were maintained in DMEM medium (Invitrogen) supplemented with 10 mM HEPES, 1 mM sodium pyruvate, 4.5 g/L glucose, 1% penicillin/streptomycin, and 10% fetal bovine growth serum (Invitrogen) at 37° C., with 5% CO2.
The cells (6×10^4 cells/24-well plate) were grown for 1 day in RPMI, followed by a 24 hour equilibration in serum-free Opti-MEM (Life Technologies). Treatments were carried out in triplicate with […] of fresh Opti-MEM containing 10 μM of compound or vehicle (0.1% DMSO) for 24 hours. […] ApoE concentration in the sample was calculated based on a standard curve derived using known amounts of purified apoE (from Biodesign).
The protein levels in the cells in the 24-well plates were measured using BCA Protein Assay Kit (from Pierce) and used to normalize the data. […] Sample apoE3 concentrations were represented relative to the DMSO treated cells.
The bars in FIG. 5 reflect the respective mean level apoE3 in the media for each compound with an indication of one […].

| Structure (SMILES) | ApoE3 Levels in Cell Media, Average of Three Tests | ApoE3 Levels in Cell Media, Test 1 | ApoE3 Levels in Cell Media, Test 2 | ApoE3 Levels in Cell Media, Test 3 |
| --- | --- | --- | --- | --- |
| O=C(c1ccc2ccccc2c1)N1CCOCC1 [Compound 90] | 98.59 % of the DMSO control | 90.22 % of the DMSO control | 91.69 % of the DMSO control | 113.8441 % of the DMSO control |
| O=C(c1ccc2ccccc2c1)N1CCCC1 [Compound 91] | 104.6561 % of the DMSO control | 126.8225 % of the DMSO control | 87.2 % of the DMSO control | 99.94 % of the DMSO control |
| O=C(c1ccc2ccccc2c1)N1CCCCC1 [Compound 92] | 115.1327 % of the DMSO control | 128.0284 % of the DMSO control | 127.4327 % of the DMSO control | 89.94 % of the DMSO control |
| CCC(C)NS(=O)(=O)c1ccc2ccccc2c1 (stereo not drawn) [Compound 93] | 102.6197 % of the DMSO control | 103.3801 % of the DMSO control | 109.2249 % of the DMSO control | 95.25 % of the DMSO control |
| CC(C)CNS(=O)(=O)c1ccc2ccccc2c1 [Compound 94] | 106.8342 % of the DMSO control | 99.12 % of the DMSO control | 91.64 % of the DMSO control | 129.7451 % of the DMSO control |
| COc1ccc(NC(=O)c2ccc3ccccc3c2)cc1 [Compound 99] | 104.5892 % of the DMSO control | 106.2723 % of the DMSO control | 116.3467 % of the DMSO control | 91.15 % of the DMSO control |
| COc1cccc(NC(=O)c2ccc3ccccc3c2)c1 [Compound 100] | 84.98 % of the DMSO control | 91.06 % of the DMSO control | 75.01 % of the DMSO control | 88.88 % of the DMSO control |
| O=C(Nc1ccc(Br)cc1)c1ccc2ccccc2c1 [Compound 101] | 96.05 % of the DMSO control | 93.29 % of the DMSO control | 88.21 % of the DMSO control | 106.6434 % of the DMSO control |
| O=S(=O)(Nc1ccccc1)c1ccc2ccccc2c1 [Compound 102] | 97.14 % of the DMSO control | 95.99 % of the DMSO control | 98.8 % of the DMSO control | 96.62 % of the DMSO control |
| CCC(C)NS(=O)(=O)c1cccc2ccccc12 (stereo not drawn) [Compound 120] | 88.28 % of the DMSO control | 100.2942 % of the DMSO control | 88.31 % of the DMSO control | 76.25 % of the DMSO control |
| CC(C)CNS(=O)(=O)c1cccc2ccccc12 [Compound 121] | 113.6663 % of the DMSO control | 113.2938 % of the DMSO control | 128.755 % of the DMSO control | 98.9502 % of the DMSO control |
| O=S(=O)(c1cccc2ccccc12)N1CCCCC1 [Compound 122] | 92.0952 % of the DMSO control | 100.1387 % of the DMSO control | 96.02 % of the DMSO control | 80.1244 % of the DMSO control |
| O=S(=O)(c1cccc2ccccc12)N1CCCC1 [Compound 123] | 98.83 % of the DMSO control | 85.69 % of the DMSO control | 90.18 % of the DMSO control | 120.6126 % of the DMSO control |
| O=S(=O)(NC1CCCCC1)c1cccc2ccccc12 [Compound 124] | 95.1 % of the DMSO control | 96.7646 % of the DMSO control | 90.1191 % of the DMSO control | 98.42 % of the DMSO control |
| CCN(CC)S(=O)(=O)c1cccc2ccccc12 [Compound 126] | 89.15 % of the DMSO control | 93.7 % of the DMSO control | 89.1 % of the DMSO control | 84.66 % of the DMSO control |
| CCCCN(CCCC)S(=O)(=O)c1ccc2ccccc2c1 [Compound 128] | 83.97 % of the DMSO control | 85.63 % of the DMSO control | 91.51 % of the DMSO control | 74.78 % of the DMSO control |
| CC(C)N(C(C)C)S(=O)(=O)c1ccc2ccccc2c1 [Compound 130] | 89.39 % of the DMSO control | 89.06 % of the DMSO control | 79.12 % of the DMSO control | 100.0032 % of the DMSO control |
| CC(NS(=O)(=O)c1ccc2ccccc2c1)c1ccccc1 (stereo not drawn) [Compound 131] | 85.9 % of the DMSO control | 78.38 % of the DMSO control | 91.41 % of the DMSO control | 87.92 % of the DMSO control |
| CCC(C)NS(=O)(=O)c1ccc(-c2ccccc2)cc1 (stereo not drawn) [Compound 132] | 86.84 % of the DMSO control | 81.51 % of the DMSO control | 85.61 % of the DMSO control | 93.42 % of the DMSO control |
| O=S(=O)(NCc1ccccc1)c1ccc(-c2ccccc2)cc1 [Compound 135] | 99.36 % of the DMSO control | 93.55 % of the DMSO control | 101.8388 % of the DMSO control | 102.6888 % of the DMSO control |
| c1ccc2cc(CN3CCOCC3)ccc2c1 [Compound 138] | 104.8487 % of the DMSO control | 103.8509 % of the DMSO control | 97.61 % of the DMSO control | 113.0808 % of the DMSO control |
| c1ccc2cc(CN3CCCCC3)ccc2c1 [Compound 141] | 80.31 % of the DMSO control | 80.57 % of the DMSO control | 95.09 % of the DMSO control | 65.29 % of the DMSO control |
| CC(C)CNC(c1ccccc1)(c1ccccc1)c1ccc2ccccc2c1 [Triarylmethyl Amine Compound No. 43, reference compound] | 82.46 % of the DMSO control | 86.35 % of the DMSO control | 74.72 % of the DMSO control | 86.32 % of the DMSO control |

same assay, conditions: 10 μM, 24 hrs, ELISA of media

| Structure (SMILES) | apoE (apoE3) expression compared to the control DMSO, in words |
| --- | --- |
| CC(C)CNC(c1ccccc1)(c1ccccc1)c1ccc2ccccc2c1 [Triarylmethyl Amine Compound No. 43, reference compound] | effectively decrease |
